Tests used:
in vitro = settings: mouse, 3T3-L1 cells during differentiation
Description: Cell culture: 3T3-L1 cells were cultured at 37° C. in a humidified 5% CO2 atmosphere and grown in a culture medium (CM) (DMEM supplemented with 10% FBS, 100 units/ml penicillin and […] streptomycin). Differentiation conditions for 3T3-L1 were as described (Dowell et al, 2000). Briefly, confluent 3T3-L1 cells were maintained in culture medium for 48 hrs (day 0). Cells were placed in Differentiation Medium 1 (DM1) (CM with 167 nM insulin, 520 μM isobutylmethylxanthine (IBMX), and 1 μM dexamethasone) for a further 48 hrs (Day 2). The medium was then changed to differentiation medium 2 (DM2) (CM with 167 nM insulin) for a further 48 hrs (Day 4). The DM2 was then changed every 48 hrs for an additional 4 days (Day 8).
Culture medium was removed at 24, 48 and 72 hrs and MTT (0.5 mg/ml in pure DMEM, 50 μl/well) was added.

3T3-L1 cells [1] = test: Oil-Red-O staining and quantification, clozapine/risperidone induced adipogenesis in 3T3-L1 (Example 2); type: cell-based, mouse; settings: 8 μM berberine, 8 days
Description: Detailed protocol was described as our previous report (Hu et al., Phytomedicine (2009) 16(9):864-873).
(§1) Oil-Red-O staining and quantification: Oil-Red-O Staining and its quantification were performed as previously reported (Liu et al., Sinica (2004) 25:1052-1057). Briefly, medium was removed and cells were washed with PBS twice, fixed with 3.7% formalin at room temperature for 30 min, then rinsed with pure water, added 60% isopropanol and incubated for 5 minutes, then moved out isopropanol and stained cells with diluted Oil-Red-O solution (Oil-Red-O store solution (3 mg/ml in pure isopropanol): water=3:2) at room temperature for 10 min. Then the diluted Oil-Red-O solution was removed and cells were washed 3 times with pure water. Images were obtained using an Olympus IX70 inverted microscope equipped for phase-contrast microscopy (Olympus, Tokyo, Japan). After staining, the cells were washed twice with 70% ethanol to remove excess stain. Stained oil droplets in the cells were dissolved in isopropanol containing 4% Nonidet-P40 (Fisher Scientific, Pittsburgh, Pa., USA) shaking in 37° C. at speed 100 rpm for 1 hour, and OD values were measured at an absorbance of 490 nm and then normalized with control group.

[2] = Source text: Mouse experiments: All experiments were approved by Institutional Animal Care and Use Committee of South Dakota State University. Nine-week-old C57BL/6J male mice were purchased from The Jackson Laboratory. Group 1 mice were fed with normal diet (ND, D12450Bi, Research Diets Inc. New Brunswick, N.J., USA) for 9 weeks, group 2 mice were fed with ND for 6 weeks and then high-fat diet (FD, D12451i, Research Diets Inc. New Brunswick, N.J., USA) for 3 weeks. The mice were maintained according to The Jackson Laboratory guidelines for animal care and housed at 22±2° C. temperature, 55±5% relative humidity, with a light/dark cycle of 12 hours. Food (group 1 with normal fat diet and group 2 with high-fat diet until sacrifice) and water were provided ad libitum. […] Six mice per subgroup were obtained finally. […] Blood samples were collected from the hearts of anesthetized mice after feeding and treatment for 36 days following fast for 16 hours. When sacrificed, mouse liver, kidney, spleen and epididymal fat tissues were dissected and weighed. Epididymal fat tissues were immediately frozen in liquid nitrogen and stored at −80° C.
C/EBPα = test: Real-Time RT-PCR, C/EBPα mRNA in epididymal fat of FD mice; type: in vivo, mouse
Description: RNA and protein purification and quantification from epididymal fat tissues: RNA and protein was isolated from 60 mg of epididymal fat tissues with Trizol (Invitrogen, Carlsbad, Calif., USA) following the protocol recommended by the manufacturers. RNA was dissolved in pure water and quantified at 260/280 nm, and sample integrity was checked by 1.5% agarose gel electrophoresis. Protein concentration was determined using the Micro BCA Protein Assay Kit (Fisher Scientific, Pittsburgh, Pa., USA) according to the manufacturer's instructions.
Quantitative Real-Time RT-PCR: Real-Time reverse transcriptase polymerase chain reaction (RT-PCR) analysis was used to measure mRNA expression of genes PPARγ, C/EBPα, GATA-2 and GATA-3 in the control of β-actin. Total RNA (0.8 μg) from each sample was used for a reverse transcription reaction using the TaqMan Reverse Transcription Reagents (Applied Biosystems, Foster City, Calif., USA) following the manufacturer's instructions. PCR was done using the SYBR green Master Mix (Applied Biosystems, Foster City, Calif., USA) following the manufacturer's instructions. The cycling conditions of amplification were as follows: an initial step of denaturation at 95° C. for 10 min, 40 cycles of denaturation at 95° C. for 30 s, annealing at 55° C. for 30 s, and elongation at 72° C. for 30 s. Real-Time PCR was performed using Mx3000P Real-Time Thermocyclers (Stratagene, La Jolla, Calif., USA). The relative mRNA levels of these genes were calculated by 2-delta delta CT method and normalized with control-treated groups.

3T3-L1 cells [3] = test: Oil-Red-O staining and quantification, berberine with amentoflavone in 3T3-L1 (Example 6); type: cell-based, mouse; settings: 8 days
Description: as §1, with “reported.” for “reported (Liu et al., Sinica (2004) 25:1052-1057).”, “water.” for “water. Images were obtained using an Olympus IX70 inverted microscope equipped for phase-contrast microscopy (Olympus, Tokyo, Japan).”

For `COc1ccc2cc3[n+](cc2c1OC)CCc1cc2c(cc1-3)OCO2.[Cl-]` [berberine, Berberine (Chloride Form)], the cytotoxicity at 2 days, 8 μM (in vitro) was 15.6%, the cytotoxicity at 4 days, 8 μM (in vitro) was 12.8% and the cytotoxicity at 6 days, 8 μM (in vitro) was 12.6%. The cytotoxicity at 8 days, 8 μM (in vitro) was 11.4%, the “reduction in lipid content vs no berberine treated group” value (3T3-L1 cells [1]; 15 μM clozapine group) was 78.5% and the “reduction in lipid content vs no berberine treated group” value (3T3-L1 cells [1]; 25 μM risperidone group) was 78.7%. For the same compound, the “reduction in lipid content vs no berberine treated group” value (3T3-L1 cells [1]; 30 μM clozapine group) was 73.2%, the “reduction in lipid content vs no berberine treated group” value (3T3-L1 cells [1]; 50 μM risperidone group) was 81% and the “reduction in lipid content vs no berberine treated group” value (3T3-L1 cells [1]; control group (clozapine series)) was 70%. For the same compound, the “reduction in lipid content vs no berberine treated group” value (3T3-L1 cells [1]; control group (risperidone series)) was 72%, the “liver weight, berberine vs control treated subgroup” value ([2]; ND mice) was “no significant difference” and the “toxicity to FD mice organs or to ND mice” value ([2]; up to 3 mg/kg/day i.p., 36 days) was “did not appear to exhibit any obvious toxicity”. The “decrease of C/EBP-α mRNA expression vs control group” value (shortened to “decrease of C/EBP-α mRNA expression”) (C/EBPα; 0.75 mg/kg/day) was 46.4%, the “decrease of C/EBP-α mRNA expression” value (C/EBPα; 1.5 mg/kg/day) was 66.1% and the “decrease of C/EBP-α mRNA expression” value (C/EBPα; 3 mg/kg/day) was 72.7%. For the same compound, the “reduction in lipid content vs no berberine treated group” value (3T3-L1 cells [3]; 2 μM berberine, differentiation medium with 15 μM clozapine) was 26%, the “reduction in lipid content vs no berberine treated group” value (3T3-L1 cells [3]; 2 μM berberine, differentiation medium without clozapine) was 9.9% and the “reduction in lipid content vs no berberine treated group” value (3T3-L1 cells [3]; 4 μM berberine, differentiation medium with 15 μM clozapine) was 70.7%. The “reduction in lipid content vs no berberine treated group” value (3T3-L1 cells [3]; 4 μM berberine, differentiation medium without clozapine) was 59.6%, the “reduction in lipid content vs no berberine treated group” value (3T3-L1 cells [3]; 8 μM berberine, differentiation medium with 15 μM clozapine) was 88.1% and the “reduction in lipid content vs no berberine treated group” value (3T3-L1 cells [3]; 8 μM berberine, differentiation medium without clozapine) was 81.7%. For the same compound, the “reduction in lipid content vs no berberine treated group” value (3T3-L1 cells [3]; 16 μM berberine, differentiation medium without clozapine) was 81%.
